What was measured:
IFNa pSTAT1 [1] = assay: Phosphorylation of STAT1 inhibition in HMC3 cells with HTRF assay; type: cell-based; settings: Homo sapiens, HMC3 microglia cells, 50ng/mL hINFα 1 hour, read-out: HTRF_HMC3 IC 50 (IFNa pSTAT1)
Caco-2 cell lines = assay: Caco-2 cell permeability; type: in vitro ADME; settings: Caco-2; result in words
Description: (§1) Compounds permeability was evaluated using Caco-2 cell lines. HBSS buffer was used as transfer buffer. Appropriate dosing and receiver solutions were applied to the donor and receiver chambers to initiate the transport assay in apical to basolateral (A to B) or basolateral to apical (B to A) directions. Compounds were tested at 10.0 µM in the absence of p-gp inhibitor bidirectionally in duplicates. After incubation at 37°C for 90 mins, donor and receiver samples were analyzed by LC-MS/MS. The intestinal absorption potential was assessed using Papp value and efflux ratio.

Caco-2 cell permeability = type: in vitro ADME; settings: human, Caco-2, 10.0 µM, no p-gp inhibitor
Description: as §1

IFNa pSTAT1 [2] = assay: Phosphorylation of STAT1 inhibition in CCF-STTG1 cells by Jess; type: cell-based; settings: Homo sapiens, 0.5 h; CCF-STTG1 astrocyte cells, IFNα induction 30 mins, Jess western; read-out: Jess_CCF-STTG1 IC50 (IFNa pSTAT1)
Description: Seeding HMC3 cells into 12-well plate and incubate overnight. Pre-stimulation with recombinant human IFNα (Sino biological, H08Y), treat cells with compound with different concentration for 1hr. After compound treatment, stimulate HMC3 cells with 50ng/mL hINFα for another 1 hour (for CCF-STTG1 cells IFNα induction time is 30 mins). And then wash cells with DPBS once gently and lyse cells with pre-cooled RIPA buffer (Sigma, R0278-500ML) for 30min on ice to harvest cells. Centrifuge cell lysate for 20 mins at 12000rpm with freezer centrifuge (Thermo Scientific, Heraeus Fresco 21) to extract protein. Prepare samples with Jess Simple Wes kit (SM-WO04) and then run western blot on Jess simple western system (Protein simple, JS-4631). Collect data and analyzed with GraphPad Prism.

COC(=O)c1cnc(NC(=O)C2CC2)cc1Nc1nn(C)c2ccc([C@H](O)C(F)(F)F)c(OC)c12 [Example 48A, Methyl (S)-6-(cyclopropanecarboxamido)-4-((4-methoxy-1-methyl-5-(2,2,2-trifluoro-1-hydroxyethyl)-1H-indazol-3-yl)amino)nicotinate]
IC50 (IFNa pSTAT1 [1]): < 0.061 nM | efflux ratio compared with the amide compounds 21,23,25,33,49A and BMS986165 (Caco-2 cell lines): lower efflux ratio numbers | Papp A→B at 90 min, 10 µM (Caco-2 cell permeability; 90 mins, A to B): 29.9 ×10⁻⁶ cm/s | Papp B→A at 90 min, 10 µM (Caco-2 cell permeability; 90 mins, B to A): 29 ×10⁻⁶ cm/s | efflux ratio at 90 min, 10 µM (Caco-2 cell permeability; read-out: Efflux Ratio: Papp(B-A)/Papp(A-B)): 0.97 | IC50 (IFNa pSTAT1 [2]): 0.74 nM
